In ChEMBL document CHEMBL1201862, “PubChem BioAssay data set” (2004):
Calls of active or inactive are those of the source. No stated cut-off is given here; in the data, actives have a measured IC50 and inactives only a lower limit.

Target: Envelope glycoprotein gp160 (Human immunodeficiency virus 1, UniProt Q6QLK5)
Assay: cell-free HIV fusion peptide-binding blockers – biochemical, uHTS, fluorescence dequenching, […] (AID 1986)

Sequence of Envelope glycoprotein gp160 (Q6QLK5 whole entry, the tested form may be a part): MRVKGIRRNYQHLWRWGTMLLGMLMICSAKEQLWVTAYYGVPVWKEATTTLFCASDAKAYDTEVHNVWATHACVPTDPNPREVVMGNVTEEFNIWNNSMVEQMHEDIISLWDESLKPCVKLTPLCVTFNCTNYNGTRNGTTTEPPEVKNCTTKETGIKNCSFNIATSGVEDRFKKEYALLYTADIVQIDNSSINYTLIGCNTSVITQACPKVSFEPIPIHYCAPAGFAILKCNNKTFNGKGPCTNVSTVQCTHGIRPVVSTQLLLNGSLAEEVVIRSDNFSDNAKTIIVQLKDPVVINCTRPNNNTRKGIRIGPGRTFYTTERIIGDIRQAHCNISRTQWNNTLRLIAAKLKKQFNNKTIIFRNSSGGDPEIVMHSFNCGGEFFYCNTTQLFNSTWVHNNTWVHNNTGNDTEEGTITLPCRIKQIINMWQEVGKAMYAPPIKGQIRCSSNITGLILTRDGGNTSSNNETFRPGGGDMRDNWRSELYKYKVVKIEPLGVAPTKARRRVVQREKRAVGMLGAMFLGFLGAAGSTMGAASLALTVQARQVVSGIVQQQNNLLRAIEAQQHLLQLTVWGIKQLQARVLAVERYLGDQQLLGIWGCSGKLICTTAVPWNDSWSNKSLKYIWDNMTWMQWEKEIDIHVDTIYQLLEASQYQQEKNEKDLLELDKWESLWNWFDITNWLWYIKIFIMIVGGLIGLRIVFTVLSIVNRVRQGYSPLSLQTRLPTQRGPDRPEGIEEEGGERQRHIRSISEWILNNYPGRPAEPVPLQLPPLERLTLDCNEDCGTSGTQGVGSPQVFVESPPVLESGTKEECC

Cc1cc(Cl)ccc1OC(C)C(=O)Nc1ccc(S(=O)(=O)Nc2cnc3ccccc3n2)cc1 (stereo unspecified)
IC50: 21.3 µM (active)
